The target of the data set is human Nav1.5 (Homo sapiens (Human), UniProt Q14524). Description: Qpatch automated patch-clamp, peak Nav1.5 current inhibition, 5-Hz AF-like assay (holding potential -85 mV). It counts as cell-based. An excerpt: Electrophysiology was used to measure the ionic currents in isolated living cells using automated patch-clamp recording, performed using an automated patch-clamp machine called Qpatch (Sophion Bioscience). Two different assay conditions were used to identify compounds with atrial-selective potential. The 5-Hz AF-like assay has more depolarized holding potential at −85 mV to mimic atrial resting membrane potential (RMP) and was used to identify compounds of strong rate-dependence. Active, rate-dependent compounds were then screened at 1 Hz (i.e., sinus rate) at the holding potential of −100 mV to mimic the ventricular scenario and help identify compounds with the largest potency separation or attenuation from the 5-Hz AF-like assay. Such compounds have the potential for treating AF without the QRS liability inherent to Class Ic drugs.
Sequence of human Nav1.5 (Q14524 whole entry): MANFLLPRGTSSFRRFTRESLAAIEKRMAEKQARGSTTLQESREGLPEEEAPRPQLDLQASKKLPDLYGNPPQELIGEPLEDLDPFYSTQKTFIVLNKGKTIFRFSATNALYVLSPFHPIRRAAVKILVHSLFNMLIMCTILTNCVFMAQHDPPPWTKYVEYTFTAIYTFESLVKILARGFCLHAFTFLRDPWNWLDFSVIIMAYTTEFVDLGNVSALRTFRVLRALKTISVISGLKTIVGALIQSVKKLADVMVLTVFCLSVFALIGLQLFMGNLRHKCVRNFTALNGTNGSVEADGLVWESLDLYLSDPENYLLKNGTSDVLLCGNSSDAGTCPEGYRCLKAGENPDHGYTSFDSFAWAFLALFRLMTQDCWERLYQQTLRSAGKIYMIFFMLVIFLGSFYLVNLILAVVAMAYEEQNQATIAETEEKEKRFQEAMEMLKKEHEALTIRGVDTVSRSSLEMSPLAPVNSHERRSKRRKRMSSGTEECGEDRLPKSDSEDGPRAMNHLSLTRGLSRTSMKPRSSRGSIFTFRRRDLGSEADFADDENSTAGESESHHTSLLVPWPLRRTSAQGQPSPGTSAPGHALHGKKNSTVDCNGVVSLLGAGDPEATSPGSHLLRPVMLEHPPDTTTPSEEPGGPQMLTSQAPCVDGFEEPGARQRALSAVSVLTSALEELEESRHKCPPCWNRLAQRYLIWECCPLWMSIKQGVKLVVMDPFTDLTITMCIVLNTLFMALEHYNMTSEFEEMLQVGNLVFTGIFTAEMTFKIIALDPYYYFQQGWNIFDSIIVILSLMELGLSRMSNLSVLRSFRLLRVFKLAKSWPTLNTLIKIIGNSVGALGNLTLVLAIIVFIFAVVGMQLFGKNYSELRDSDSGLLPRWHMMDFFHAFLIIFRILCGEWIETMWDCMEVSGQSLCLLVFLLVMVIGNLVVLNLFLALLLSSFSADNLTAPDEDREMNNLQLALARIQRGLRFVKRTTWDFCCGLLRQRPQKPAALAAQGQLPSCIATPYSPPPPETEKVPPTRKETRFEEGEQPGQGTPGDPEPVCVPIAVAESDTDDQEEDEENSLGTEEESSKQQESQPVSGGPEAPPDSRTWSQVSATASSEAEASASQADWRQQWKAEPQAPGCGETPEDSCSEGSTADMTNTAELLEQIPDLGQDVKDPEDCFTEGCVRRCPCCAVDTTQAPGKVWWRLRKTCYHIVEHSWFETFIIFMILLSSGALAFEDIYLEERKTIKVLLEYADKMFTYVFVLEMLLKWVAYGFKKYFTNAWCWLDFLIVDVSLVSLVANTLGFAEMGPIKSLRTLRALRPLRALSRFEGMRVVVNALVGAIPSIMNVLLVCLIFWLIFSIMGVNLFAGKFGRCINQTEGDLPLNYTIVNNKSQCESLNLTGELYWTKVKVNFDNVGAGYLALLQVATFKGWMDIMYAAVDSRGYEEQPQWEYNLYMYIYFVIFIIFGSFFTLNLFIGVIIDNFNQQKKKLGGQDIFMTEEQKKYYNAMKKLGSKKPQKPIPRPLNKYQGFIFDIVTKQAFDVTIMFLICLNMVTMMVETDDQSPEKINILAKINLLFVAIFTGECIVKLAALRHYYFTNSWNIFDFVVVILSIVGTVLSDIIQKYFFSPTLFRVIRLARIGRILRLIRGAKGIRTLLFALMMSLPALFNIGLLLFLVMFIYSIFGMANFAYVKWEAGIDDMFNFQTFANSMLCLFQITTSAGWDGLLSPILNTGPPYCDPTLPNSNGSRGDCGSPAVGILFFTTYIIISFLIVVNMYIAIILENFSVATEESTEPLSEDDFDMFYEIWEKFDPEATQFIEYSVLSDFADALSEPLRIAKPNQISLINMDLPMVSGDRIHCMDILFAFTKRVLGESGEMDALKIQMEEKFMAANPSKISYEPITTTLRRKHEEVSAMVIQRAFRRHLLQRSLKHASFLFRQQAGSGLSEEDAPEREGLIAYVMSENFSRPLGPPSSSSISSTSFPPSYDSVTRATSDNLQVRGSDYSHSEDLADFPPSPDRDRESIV
The sodium current conducted through a cell (via Nav1.5) or electrical signals were processed through a low-pass filter at 5 KHz, re-digitalized and acquired at 20 kHz. Series resistance was not compensated and leak subtraction was performed.
1 to 3 million Chinese Hamster Ovary cells (also known as CHO-K1) stably expressing human Nav1.5 were seeded into […] culture flasks with 25 mL medium (consisting of Gibco Dulbecco's Modified Eagle Medium as a base medium with 1% MEM non-essential amino acids, 400 μg/mL Geneticin, 5 μg/mL puromycin and 10% fetal bovine serum) 48-72 hours prior to the experiments. On the day of the experiment, cells were washed once with phosphate-buffered saline (also known as PBS; Gibco) detached with Detachin™ (Genlantis), and re-suspended in CHO—S-SFM II media (Gibco) at 200,000 cells/mL. The CHO—S-SFM II was replaced with assay solutions prior to the assays. Whole-cell currents were recorded at room temperature in the whole-cell configuration. The external aqueous assay solution (pH=7.4; Osm=307-315) contained the following (the concentration for each component is expressed in parentheses in mM): NaCl (140 mM), KCl (4 mM), CaCl2) (2 mM), MgCl2 (1 mM), 4-(2-hydroxyethyl)-1-piperazineethanesulfonic acid, also known as HEPES (10 mM), and glucose (5 mM). The internal aqueous assay solution (pH=7.2; Osm=292-295) contained the following (the concentration for each component is expressed in parentheses in mM): CsF (110 mM), CsCl (10 mM), NaCl (10 mM), HEPES (10 mM), and ethylene glycolbis(β-aminoethyl ether)-N,N,N′,N′-tetraacetic acid, also known as EGTA (10 mM).
To assess peak Nav1.5 current inhibition in an atrial fibrillation-mimicking condition (Nav1.5 IC50 (5 Hz, AF-like rate) (μM)), compounds were first prepared at 10 mM in DMSO, and cells were pre-incubated with test compounds at each concentration for 3 min. in an ascending order of 0, 0.37, 1.1, 3.3, 10 and 30 μM. An atrial action potential-like protocol consisting of a voltage ramp (+10 mV to −85 mV for a 150 ms duration and a holding potential at −85 mV) was then applied to cells at 5 Hz for 12 s until no further current change or inhibition was observed. The percent inhibition (expressed as ([Iafter compound treatment/Ibefore compound treatment]×100%) is calculated by normalizing the peak current amplitude at the last pulse of each of the 6 compound concentrations by the amplitude before exposure to the test compound. The compiled data was further normalized by vehicle control (DMSO) to account for Nav1.5 current run-down, and IC50 was calculated by Matlab (MathWorks, USA).
In general terms: The patch-clamp technique gives a direct electrical read-out from membranes.

The mark [1] stands for this setting: CHO-K1 cells stably expressing human Nav1.5, Table 6, Examples 63-90, read-out: Nav1.5 IC50 (5 Hz, AF Rate).
Where [2] appears, read: CHO-K1 cells stably expressing human Nav1.5, holding potential -85 mV, Table 5, read-out: Nav1.5 IC50 (5 Hz, AF Rate).

32 molecules from patent US20250034108A1, “SODIUM CHANNEL BLOCKERS” (NOVARTIS AG, priority 2023, published 2025) can be followed below.

Read-outs that look alike come from different tables or passages of the source.

As usually defined, the IC50 is the point on the concentration scale where inhibition reaches its midpoint.

Consider `C[C@](O)(CS(N)(=O)=O)c1cccc(-c2nnn(Cc3c(F)cccc3Br)n2)n1` [Example 67], for which the IC50 under setting [1] came to 8.1 µM.
The same measure, in the same setting: the same measure for `C[C@](O)(CS(N)(=O)=O)c1cccc(-c2nnn(Cc3cc(Cl)cc(Cl)c3Cl)n2)n1` [Example 90]: 8.9 µM; for `C[C@](O)(CS(N)(=O)=O)c1cccc(-c2nnn(Cc3ccc(Cl)c(C(F)(F)F)c3)n2)n1` [Example 80]: 14 µM; for `C[C@](O)(CS(N)(=O)=O)c1cccc(-c2nnn(Cc3cc(Cl)c(F)cc3F)n2)n1` [Example 81]: 21 µM.
`C[C@](O)(CS(N)(=O)=O)c1cccc(-c2nnn(Cc3cc(OC(F)(F)F)ccc3Br)n2)n1` [Example 86]: the IC50 under setting [1] is 6.3 µM.
Consider `NS(=O)(=O)CC(O)c1cccc(-c2nnn(Cc3cc(OC(F)(F)F)ccc3F)n2)n1` (racemic) [Example 48, 2-(6-(2-(2-fluoro-5-(trifluoromethoxy)benzyl)-2H-tetrazol-5-yl)pyridin-2-yl)-2-hydroxyethane-1-sulfonamide], for which, under setting [2], the IC50 came to 5.5 µM.
As to `CC(O)(CS(N)(=O)=O)c1cccc(-c2nnn(Cc3cc(OC(F)(F)F)ccc3F)n2)c1` (single isomer, unassigned) [Example 25, (R or S)-2-(3-(2-(2-fluoro-5-(trifluoromethoxy)benzyl)-2H-tetrazol-5-yl)phenyl)-2-hydroxypropane-1-sulfonamide], under setting [2], the IC50 turned out to be 5.5 µM.
The same measure, in the same setting: the same measure for `CC(O)(CS(N)(=O)=O)c1nc(-c2nnn(Cc3cc(OC(F)(F)F)ccc3F)n2)ccc1Cl` (single isomer, unassigned) [Example 43, (R or S)-2-(3-chloro-6-(2-(2-fluoro-5-(trifluoromethoxy)benzyl)-2H-tetrazol-5-yl)pyridin-2-yl)-2-hydroxypropane-1-sulfonamide]: 8.2 µM.
As for `C[C@](O)(CS(N)(=O)=O)c1cccc(-c2nnn(Cc3cc(OC(F)F)ccc3F)n2)n1` [Example 84], the IC50 under setting [1] was found to be 14 µM.
`Cc1ccc(C(C)C)cc1Cn1nnc(-c2cccc([C@@](C)(O)CS(N)(=O)=O)n2)n1` [Example 72]: under setting [1], the IC50 was 7.3 µM.
Still for that read-out and setting: the same measure for `C[C@](O)(CS(N)(=O)=O)c1cccc(-c2nnn(Cc3c(C(F)(F)F)ccc(Cl)c3Cl)n2)n1` [Example 87]: 9.3 µM.
For `CC(O)(CS(N)(=O)=O)c1cccc(-c2cnn(Cc3cc(OC(F)(F)F)ccc3F)n2)n1` (single isomer, unassigned) [Example 62, (R or S)-2-(6-(2-(2-fluoro-5-(trifluoromethoxy)benzyl)-2H-1,2,3-triazol-4-yl)pyridin-2-yl)-2-hydroxypropane-1-sulfonamide], the IC50 under setting [2] amounted to 3.4 µM.
As to `C[C@](O)(CS(N)(=O)=O)c1cccc(-c2nnn(Cc3cccc(Cl)c3Cl)n2)n1` [Example 70], under setting [1], the IC50 is 22 µM.
For the molecule `CC(O)(CS(N)(=O)=O)c1cccc(-c2nnn(Cc3c(F)ccc4c3OC(F)(F)O4)n2)n1` (racemic) [Rac-3 + 4, 2-hydroxy-2-(6-(2-((2,2,5-trifluorobenzo[d][1,3]dioxol-4-yl)methyl)-2H-tetrazol-5-yl)pyridin-2-yl)propane-1-sulfonamide], the IC50 under setting [2] was 7 µM.
On to `CC(C(O)c1cccc(-c2nnn(Cc3cc(OC(F)(F)F)ccc3F)n2)n1)S(N)(=O)=O` (single isomer, unassigned) [Example 49, (JR or 1S,2R or 2S)-1-(6-(2-(2-fluoro-5-(trifluoromethoxy)benzyl)-2H-tetrazol-5-yl)pyridin-2-yl)-1-hydroxypropane-2-sulfonamide], for which the IC50 under setting [2] was determined as 5.7 µM.
Take `C[C@](O)(CS(N)(=O)=O)c1cccc(-c2nnn(Cc3cc(C(F)(F)F)ccc3Cl)n2)n1` [Example 74]: the IC50 under setting [1] is 21 µM.
Turning to “3-(6-(1-(2-fluoro-5-(trifluoromethoxy)benzyl)-1H-pyrazol-3-yl)pyridin-2-yl)-3-hydroxy-2-methylbutane-2-sulfonamide [Example 54]”, the IC50 under setting [2] was 4.2 µM.
`C[C@](O)(CS(N)(=O)=O)c1cccc(-c2nnn(Cc3cccc(OC(F)(F)F)c3)n2)n1` [Example 82]: the IC50 under setting [1] amounted to 7.3 µM.
Take `C[C@](O)(CS(N)(=O)=O)c1cccc(-c2nnn(Cc3c(F)cccc3C(F)(F)F)n2)n1` [Example 79]: the IC50 under setting [1] is 13 µM.
Consider `CC(O)(CS(N)(=O)=O)c1nc(-c2nnn(Cc3cc(OC(F)(F)F)ccc3F)n2)ccc1Cl` (single isomer, unassigned) [Example 42, (R or S)-2-(3-chloro-6-(2-(2-fluoro-5-(trifluoromethoxy)benzyl)-2H-tetrazol-5-yl)pyridin-2-yl)-2-hydroxypropane-1-sulfonamide], for which, under setting [2], the IC50 worked out at 12 µM.
Turning to `C[C@](O)(CS(N)(=O)=O)c1cccc(-c2nnn(Cc3cccc(OC(F)(F)F)c3F)n2)n1` [Example 75], the IC50 under setting [1] was found to be 4.8 µM.
Still for that read-out and setting: the same measure for `C[C@](O)(CS(N)(=O)=O)c1cccc(-c2nnn(Cc3c(Cl)cccc3Cl)n2)n1` [Example 85]: 5.2 µM; for `C[C@](O)(CS(N)(=O)=O)c1cccc(-c2nnn(Cc3cc(Cl)cc(OC(F)(F)F)c3)n2)n1` [Example 88]: 28 µM.
Take `CC(O)(CS(N)(=O)=O)c1cccc(-c2nnn(Cc3cc(OC(F)(F)F)ccc3F)n2)c1` (single isomer, unassigned) [Example 26, (R or S)-2-(3-(2-(2-fluoro-5-(trifluoromethoxy)benzyl)-2H-tetrazol-5-yl)phenyl)-2-hydroxypropane-1-sulfonamide]: under setting [2], the IC50 stood at 1.8 µM.
For the molecule `C[C@](O)(CS(N)(=O)=O)c1cccc(-c2nnn(Cc3cc(C(F)(F)F)cc(C(F)(F)F)c3)n2)n1` [Example 83], the IC50 under setting [1] worked out at 18 µM.
`CC(O)(CS(N)(=O)=O)c1cccc(-c2nc(Cc3cc(OC(F)(F)F)ccc3F)no2)n1` (racemic) [Rac-57 + 58, 2-(6-(3-(2-fluoro-5-(trifluoromethoxy)benzyl)-1,2,4-oxadiazol-5-yl)pyridin-2-yl)-2-hydroxypropane-1-sulfonamide]: the IC50 under setting [2] was 3.7 µM.
Take `C[C@](O)(CS(N)(=O)=O)c1cccc(-c2nnn(Cc3cc(F)ccc3Br)n2)n1` [Example 64]: the IC50 under setting [1] was 13 µM.
The same measure, in the same setting: then `Cc1cc(C)c(C)c(Cn2nnc(-c3cccc([C@@](C)(O)CS(N)(=O)=O)n3)n2)c1` [Example 68], with 16 µM.
Consider `CC(O)(CS(N)(=O)=O)c1cccc(-c2nnn(Cc3cc(F)ccc3F)n2)n1` (single isomer, unassigned) [Example 18, (R or S)-2-(6-(2-(2,5-difluorobenzyl)-2H-tetrazol-5-yl)pyridin-2-yl)-2-hydroxypropane-1-sulfonamide], for which the IC50 under setting [2] was found to be 20 µM.
Take `C[C@](O)(CS(N)(=O)=O)c1cccc(-c2nnn(Cc3cccc(Br)c3F)n2)n1` [Example 66]: the IC50 under setting [1] was determined as 28 µM.
Regarding `Cc1cccc(Cn2nnc(-c3cccc([C@@](C)(O)CS(N)(=O)=O)n3)n2)c1C` [Example 69], the IC50 under setting [1] worked out at 11 µM.
`CC(O)(CS(N)(=O)=O)c1cccc(-c2nnn(Cc3cc(F)ccc3F)n2)n1` (single isomer, unassigned) [Example 17, (R or S)-2-(6-(2-(2,5-difluorobenzyl)-2H-tetrazol-5-yl)pyridin-2-yl)-2-hydroxypropane-1-sulfonamide]: the IC50 under setting [2] turned out to be 24 µM.
